From ChEMBL document CHEMBL3638383, “Pyrimidone derivatives” (2015)
pIC50: −log10 of the molar value.

Biological target: Glycogen synthase kinase-3 beta splice variant X1 (Bos taurus, UniProt A0A059UE90)
Test: Inhibition Assay: A mixture containing 100 mM MES-sodium hydroxide (pH 6.5), 1 mM magnesium acetate, 0.5 mM EGTA, 5 mM, β-mercaptoethanol, 0.02% Tween 20, 10% glycerol, 12 µg/ml P-GS1, 41.7 µM [γ-^32P] ATP (68 kBq/ml), bovine cerebral TPK1 and a compound shown in Table (a final mixture contained 1.7% DMSO deriving from a solution of a test compound prepared in the presence of 10% DMSO) was used as a reaction system. The phosphorylation was started by adding ATP, and the reaction was conducted at 25° C. for 2 hours, and then stopped by adding 21% perchloric acid on ice cooling. The reaction mixture was centrifuged at 12,000 rpm for 5 minutes and adsorbed on P81 paper (Whatmann), and then the paper was washed four times with 75 mM phosphoric acid, three times with water and once with acetone. The paper was dried, and the residual radioactivity was measured using a liquid scintillation counter.

Compound	pIC50
Cn1c(OCC(=O)c2ccccc2)nc(-c2ccncn2)cc1=O	7.70
Cn1c(OCC(=O)c2ccc(Br)cc2)nc(-c2ccncc2F)cc1=O	7.57
Cn1c(OCC(=O)c2ccc(Br)cc2)nc(-c2ccncc2)cc1=O	6.78
Cn1c(OCC(=O)c2ccc(Br)cc2)nc(-c2ccncn2)cc1=O	6.97
